The text below walks through data of PubChem BioAssay (NCI).

SMILES strings stand for the structures.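 The compound was tested at five concentrations on cells cultured in 96-well plates, with a 48-hour exposure period. At the GI50, growth is halved. TGI: total growth inhibition.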

What all share (test): inhibition of tumour cell growth, NCI panel, 48 h
The test system of assay [1] is LOX IMVI melanoma.
For assay [2], the system named is HT29 colon.
Assay [3] has as its system IGROV1 ovarian.
Assay [4] concerns OVCAR-8 ovarian.
Assay [5] deals with SF-295 CNS.
The subject of assay [6] is MALME-3M melanoma.
Assay [7] deals with COLO 205 colon.
The test system of assay [8] is SK-OV-3 ovarian.
The test system of assay [9] is U251 CNS.
For assay [10], the system named is KM12 colon.

Regarding `COC(=O)[C@]12CC=C3O[C@@H]4OC5(CCCCC5)O[C@@H]4C3[C@@H]1C(=O)CCC2=O` (stereo not given in full), the TGI in assay [1], in assay [2], in assay [3], in assay [4], in assay [5] and in assay [6] was more than 100 µM in each case. The TGI in [7], in assay [8], in [9] and in assay [10] was more than 100 µM throughout.
On to `O=c1oc2cc(N=Cc3ccc4c(c3)OCO4)ccc2c2ccccc12`, for which the TGI in [1], in assay [2], in [3], in assay [4], in [5] and in assay [6] was more than 100 µM throughout. The TGI in assay [7], in assay [8], in [9] and in [10] was more than 100 µM each time.
Take `Clc1ccc2nnnn2n1`: the GI50 is 3.64 µM in assay [1]; 2.93 µM in assay [2]; 4.05 µM in assay [3]; 5.22 µM in assay [4]; 4.05 µM in assay [5]; 12.1 µM in assay [6]. Besides, the GI50 was 2.03 µM in assay [7], 10.5 µM in assay [8], 3.97 µM in assay [9] and 2.08 µM in [10]. Further, the TGI in assay [1] is more than 100 µM; in assay [2], 8.03 µM; in assay [3] it was 50.1 µM; in [4], more than 100 µM; in [5] it was more than 100 µM; in assay [6], 31.4 µM. Also, the TGI in assay [7] came out at 3.81 µM; in assay [8] it was 92.9 µM; in assay [9], 22.7 µM; in [10] it was 4.87 µM.
Consider `COc1ccc(NC(=O)COCCOCCNC[C@@H]2C(=O)O[C@H]3[C@H]2CC/C(COC(=O)OC/C2=C/CC[C@@]4(C)O[C@H]4[C@H]4OC(=O)[C@@H](CN(C)C)[C@@H]4CC2)=C\CC[C@@]2(C)O[C@@H]32)c(O)c1C(N)=O`, for which the GI50 was 5.31 µM in [1]; 1.71 µM in [2]; 4.68 µM in [3]; 3.56 µM in assay [4]; more than 50 µM in assay [5]; 1.52 µM in [6]. In addition, the GI50 in assay [7] was 1.06 µM; in assay [8], 40.6 µM; in assay [9], 8.87 µM; in assay [10] it was 9.72 µM. The TGI in [1] was 11.4 µM; in assay [2] it was 5.77 µM; in assay [3] it was 11.8 µM; in [4] it was 12 µM; in [5], more than 50 µM; in [6] it was 4.12 µM. The TGI is 2.52 µM in [7], more than 50 µM in assay [8], 18 µM in assay [9] and 22.5 µM in [10].
For the compound `COc1ccc(S(=O)(=O)Nc2cc(/C=C\c3cc(OC)c(OC)c(OC)c3)ccc2OC)cc1`, the GI50 in assay [1] was 0.272 µM; in [2] it was 0.0809 µM; in assay [3] it was 0.166 µM; in [4] it was 0.276 µM; in assay [5], 0.0393 µM; in assay [6] it was 0.0527 µM. Moreover, the GI50 was 0.0383 µM in assay [7], 0.0963 µM in assay [8], 0.108 µM in [9] and 0.0738 µM in [10]. Also, the TGI in assay [1] is more than 100 µM; in assay [2] it was 8.22 µM; in assay [3], more than 100 µM; in assay [4], more than 100 µM; in assay [5] it was 70.9 µM; in assay [6], 61.1 µM. The TGI was 0.158 µM in assay [7], 38.3 µM in assay [8], more than 100 µM in assay [9] and more than 100 µM in assay [10].
`CN1CC[C@]2(C)c3cc(O)ccc3CC3CCCC1C32C` (stereo not given in full): the TGI in assay [1], in assay [2], in assay [3], in assay [4], in assay [5] and in assay [6] was more than 100 µM throughout. Moreover, the TGI in [7], in [8], in assay [9] and in assay [10] was more than 100 µM in each case.
As for `COc1ccc(S(=O)(=O)N/N=C/c2cc(I)cc([N+](=O)[O-])c2O)cc1OC`, the TGI in assay [1] is more than 100 µM; in [2], more than 100 µM; in assay [3] it was more than 100 µM; in [4] it was more than 100 µM; in assay [5], more than 100 µM; in assay [6], 83.9 µM. Further, the TGI in assay [7] is more than 100 µM; in assay [8] it was 92.2 µM; in [9], more than 100 µM; in [10] it was more than 100 µM.
`CCOC(=O)/C(=C\c1ccc(C#N)cc1)C(C)=O`: the TGI in assay [1] is 34.5 µM; in assay [2], more than 100 µM; in assay [3], 33.9 µM; in [4], 96.9 µM; in assay [5], more than 100 µM; in assay [6], 31.5 µM. For the same compound, the TGI in [7] is more than 100 µM; in [8], more than 100 µM; in assay [9] it was 32.7 µM; in assay [10], 43 µM.
On to `COc1cc(Cl)cc(-c2nn(-c3cccc(NC(=O)Nc4cc(C(F)(F)F)cc(C(F)(F)F)c4)c3)cc2-c2ccncc2)c1`, for which the GI50 was 0.513 µM in [1]; 0.443 µM in [2]; 0.669 µM in assay [3]; 0.39 µM in [4]; 0.622 µM in assay [5]; 0.73 µM in assay [6]. Moreover, the GI50 in [7] is 0.528 µM; in assay [8], 1.22 µM; in [9], 0.336 µM; in assay [10], 0.447 µM. Moreover, the TGI was determined as 2.29 µM in assay [1]; 2.38 µM in assay [2]; 13.4 µM in assay [3]; 2.46 µM in assay [4]; 2.25 µM in assay [5]; 4.77 µM in assay [6]. The TGI worked out at 1.97 µM in assay [7], 6.68 µM in assay [8], 1.36 µM in assay [9] and 2.77 µM in assay [10].
Regarding `CC(=O)OCC(=O)[C@@]12OC(C)(C)O[C@@H]1C[C@H]1[C@@H]3CC=C4C[C@@H](O)CC[C@]4(C)[C@H]3CC[C@@]12C`, the TGI in assay [1], in [2], in [3], in assay [4], in [5] and in assay [6] was more than 100 µM each time. The TGI in assay [7], in assay [8], in [9] and in assay [10] was more than 100 µM each time.
